“And” between values parts separate entries of the source, which are not always exact repeats. Equal entries are not always repeated. Where two headings read alike, the source gives them in different places.
Columns and labels:
[1] = amino acid side chain, un-ionized fraction; Wolfenden 1981; cited from earlier work
PC-3 [2] = experiment: Growth inhibition assay, PA alone, PC-3; type: cell-based; settings: PA alone (no DFMO), six days, repeat determinations, read-out: Cell Line IC50 PC-3
Procedure: (§1) Medias were obtained from Mediatech, Inc. (Herdon, Va.) and serums from Gibco BRL (Gaithersburg, Md.). 50 U/ml penicillin, 50 μg/ml streptomycin and 2 mM L-glutamine (all from Bio Whittaker, Walkersville, Md.) were included in all cultures. […] When cells were cultured with polyamines or ORI compounds, 1 mM aminoguanidine (AG; Sigma) was included to inhibit serum amine oxidase activity.

[3] = test system: polyamine transport in MDA-MB-231 cells; experiment: Polyamine transport and Ki assay (3H-spermidine uptake); type: cell-based; settings: 15 min 37° C., Lineweaver-Burke analysis
Procedure: [2,9-^3H]spermidine (SPD) from DuPont NEN, Boston, Mass. was added alone or simultaneously with PAs to 24-well plates containing MDA-MB-23 1 cells in log growth. The cells were incubated at 37° C. for 15 min to determine initial rate polyamine uptake. The cells were then washed three times with cold PBS, lysed with 0.1% SDS, and the amount of polyamine incorporation into the cells was determined by scintillation counting of the cell lysates. […] The Ki values were determined using double reciprocal Lineweaver-Burke plot analyses. Ki values were determined from linear equations derived from graphing the slopes of Lineweaver-Burke plot vs. inhibitor concentration, with Ki=y-intercept/slope.

A375 [4] = experiment: Growth inhibition assay, PA alone, A375; type: cell-based; settings: PA alone (no DFMO), six days, repeat determinations, read-out: Cell Line IC50 A375
Procedure: as §1

SK-OV-3 [5] = experiment: Growth inhibition assay, PA alone, SK-OV-3; type: cell-based; settings: PA alone (no DFMO), six days, repeat determinations, read-out: Cell Line IC50 SK-OV-3
Procedure: as §1

[6] = test system: 4 cell lines (A375, MDA-MB-231, PC-3, SK-OV-3); experiment: Growth inhibition with DFMO, average over 4 cell lines; type: cell-based; settings: for EC50: Table 3, average over cell lines, with DFMO, read-out: AVG. EC50
Procedure: Cells were plated in 96-well plates such that they would be in log growth for the duration of the assay. The day after plating, PAs were added to the cells, and growth, if any, permitted to continue for six days in the presence of 1 mM AG and 0.5 μM SPD to insure that any growth inhibition was not the result of depletion of external polyamines in the media. At the end of the six days, cell growth was measured by MTS/PMS dye assay (Cell Titer 96 Aqueous Non-Radioactive Cell Proliferation Assay; Promega, Madison, Wis.).

SK-OV-3 [7] = experiment: Growth inhibition assay (MTS/PMS) with DFMO, SK-OV-3; type: cell-based; settings: in the presence of DFMO (1-5 mM), 1 mM AG, 0.5 μM SPD, six days; repeat determinations; read-out: Cell Line EC50 SK-OV-3
Procedure: as §1

A375 [8] = experiment: Growth inhibition assay (MTS/PMS) with DFMO, A375; type: cell-based; settings: in the presence of DFMO (1-5 mM), 1 mM AG, 0.5 μM SPD, six days; repeat determinations; read-out: Cell Line EC50 A375
Procedure: as §1

PC-3 [9] = experiment: Growth inhibition assay (MTS/PMS) with DFMO, PC-3; type: cell-based; settings: in the presence of DFMO (1-5 mM), 1 mM AG, 0.5 μM SPD, six days; repeat determinations; read-out: Cell Line EC50 PC-3
Procedure: as §1

MDA-MB-231 [10] = experiment: Growth inhibition assay, PA alone, MDA-MB-231; type: cell-based; settings: PA alone (no DFMO), six days; repeat determinations; read-out: Cell Line IC50 MDA-MB-231
Procedure: as §1

MDA-MB-231 [11] = experiment: Growth inhibition assay (MTS/PMS) with DFMO, MDA-MB-231; type: cell-based; settings: in the presence of DFMO (1-5 mM), 1 mM AG, 0.5 μM SPD, six days; repeat determinations; read-out: Cell Line EC50 MDA-MB-231
Procedure: as §1

Row | EC50 [6] | IC50 (PC-3 [2]) | EC50 (SK-OV-3 [7]) | EC50 (A375 [8]) | IC50 (SK-OV-3 [5]) | EC50 (PC-3 [9]) | IC50 (MDA-MB-231 [10]) | EC50 (MDA-MB-231 [11]) | SMILES | Ki [3] | further results
1 |  |  |  |  |  |  |  |  | [HH] [hydrogen] |  | free energy for the transfer from the vapor phase to H2O (hydration potential) [1]: 2.39 kcal/mol
2 |  |  |  |  |  |  |  |  | C [methane] |  | free energy for the transfer from the vapor phase to H2O (hydration potential) [1]: 1.94 kcal/mol
3 |  |  |  |  |  |  |  |  | CCCCCCCCC(=O)NCCCC[C@@H](N)C(=O)NCCCNCCCCNCCCN [IB6] | 75 nM | IC50 (PC-3 [2]; Homo sapiens, PC-3, 144 h): > 30000 nM; IC50 (A375 [4]; Homo sapiens, A-375, 144 h): > 30000 nM; IC50 (SK-OV-3 [5]; Homo sapiens, SK-OV-3, 144 h): > 30000 nM
4 |  |  |  |  |  |  |  |  | CCCCN [n-butylamine] |  | free energy for the transfer from the vapor phase to H2O (hydration potential) [1]: -7.00 kcal/mol
5 | 77 nM |  |  |  |  |  |  |  | CCCCCCCCCCCCCCCC(=O)NCCCC[C@H](N)C(=O)NCCCNCCCCNCCCN [IA4] | 1.5 nM | 
6 | 583 nM | > 30000 nM | 1570 nM | 170 nM | > 30000 nM | 99 nM | > 30000 nM | 491 nM | CCCCCCCC/C=C\CCCCCCCC(=O)NCCCC[C@@H](N)C(=O)NCCCNCCCCNCCCN [IIIB1] | 54 nM | IC50 (A375 [4]): > 30000 nM
7 | 72 nM |  | 98 nM and 83 nM and 80 nM | 16 nM and 10 nM and 9 nM |  |  |  |  | CCCCCCCCCCCCCCCCS(=O)(=O)NCCCC[C@H](N)C(=O)NCCCNCCCCNCCCN [IIA10] | 4 nM | 
8 |  | > 300000 nM |  |  |  | 8510 nM and 7870 nM | > 300000 nM | 41300 nM and 29800 nM | NCCCNCCCCNCCCNC(=O)[C@@H](N)CCCCNC(=O)OCc1ccccc1 [IA40] | 39 nM | 
9 | 105 nM |  |  |  |  |  |  |  | CCCCCCCCCCCCCCCC(=O)NCCCC[C@@H](N)C(=O)NCCCNCCCCNCCCN [IB4] | 17 nM | 
10 | 17 nM | > 3000 nM |  |  | > 3000 nM |  |  |  | CCCCCCCCCCCCCCCCCCCC(=O)NCCCC[C@H](N)C(=O)NCCCNCCCCNCCCN [IA1] | 15 nM | 
11 | 110 nM | 22000 nM and 19900 nM | 134 nM and 224 nM | 26 nM and 44 nM | 18100 nM and 23100 nM | 99 nM and 74 nM | > 30000 nM | 169 nM | CCCCCCCCCCCCCCCCS(=O)(=O)NCCCC[C@@H](N)C(=O)NCCCNCCCCNCCCN [IIB10] | 2 nM | IC50 (A375 [4]): 18000 nM and 17700 nM
12 |  | 430000 nM |  |  |  | 16900 nM | > 300000 nM | 36900 nM | CC(C)(C)OC(=O)N[C@@H](CCCCN)C(=O)NCCCNCCCCNCCCN [IC41] | 191 nM | 
13 |  |  |  |  |  |  |  |  | CCCNC(=N)N [n-propylguanidine] |  | free energy for the transfer from the vapor phase to H2O (hydration potential) [1]: -14.6 kcal/mol
14 | 14 nM |  | 27 nM and 21 nM |  |  |  |  |  | CCCCCCCCCCCCCCCCCC(=O)NCCCC[C@H](N)C(=O)NCCCNCCCCNCCCN [IA2] | 1.4 nM | 
15 |  | > 30000 nM | > 30000 nM | 214 nM | > 30000 nM | > 30000 nM | > 30000 nM | > 30000 nM | NCCCNCCCCNCCCNC(=O)[C@@H](N)CCCCNC(=O)CCCCCCCCC(=O)NCCCC[C@H](N)C(=O)NCCCNCCCCNCCCN [IA19] |  | IC50 (A375 [4]): > 30000 nM; growth inhibition / EC50 with polyamine synthesis inhibitor, comparison in words ([6]; compared with lysine-spermine conjugates (ORI 1202, ORI 1426) or PAs lacking a hydrophobic domain): no improvement
16 | 1260 nM | 18700 nM | 2640 nM | 440 nM | 18100 nM | 1330 nM | 18600 nM | 636 nM | CCCCCCCCCCCCCCCC(=O)NC(CCCCN)C(=O)NCCCNCCCCNCCCN (centres unmarked) [ID4] |  | IC50 (A375 [4]): 17900 nM
17 | 39 nM | > 3000 nM | 81 nM | 10 nM | > 3000 nM | 46 nM | > 3000 nM | 19 nM | CCCCCCCCCCCCCCCCNCCCC[C@H](N)C(=O)NCCCNCCCCNCCCN [IVA11] |  | IC50 (A375 [4]): > 3000 nM
